Target: Sphingosine 1-phosphate receptor 1 (Homo sapiens, UniProt P21453)
Assay: direct activation of human S1P1 – cell-based, agonist mode, 60K MLSMR set, dose response (AID 468)
[1] = inactive by the depositor's call

Sequence of Sphingosine 1-phosphate receptor 1 (P21453 whole entry): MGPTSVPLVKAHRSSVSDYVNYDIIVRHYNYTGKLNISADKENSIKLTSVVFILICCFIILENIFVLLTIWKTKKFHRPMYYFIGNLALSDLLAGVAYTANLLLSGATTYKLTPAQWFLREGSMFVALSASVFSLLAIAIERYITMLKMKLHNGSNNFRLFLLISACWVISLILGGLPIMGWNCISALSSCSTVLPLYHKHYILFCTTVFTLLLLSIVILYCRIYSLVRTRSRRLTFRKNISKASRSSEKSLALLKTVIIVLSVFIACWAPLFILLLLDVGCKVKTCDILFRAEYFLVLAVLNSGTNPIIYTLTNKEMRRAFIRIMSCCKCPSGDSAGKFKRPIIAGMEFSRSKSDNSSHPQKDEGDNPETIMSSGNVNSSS

EC50 | EC50 [1] | Compound
4.96 µM |  | CCCC(=O)Nc1ccc2oc(-c3ccc(OC)c(Br)c3)nc2c1 [MLS000042482]
6.39 µM |  | Clc1ccc(-n2nnnc2Sc2ncnc3sccc23)cc1 [SMR000066808]
4.14 µM |  | CCc1c(C)sc(NC(=O)c2cc(-c3ccco3)on2)c1C#N [MLS000087225]
6.74 µM |  | Cc1ccccc1OCCCCc1c(C)n[nH]c1C [SMR000103095]
2.37 µM |  | O=C(Nc1c(F)cc(F)cc1Br)c1cc(-c2ccc(O)cc2)on1 [MLS000116264]
1.19 µM |  | c1ccc2c(c1)CCN(c1ncnc3c1[nH]c1ccccc13)C2 [SMR000039631]
> 95 µM |  | CCCc1cc(C(=O)Nc2sc3c(c2C#N)CCC3)no1 [MLS000116386]
5.96 µM |  | CCCC(=O)Nc1ccc(-c2nc3cc(C)ccc3o2)cc1 [MLS000061826]
> 95 µM |  | COc1cc(C(=O)N2CCN(S(=O)(=O)c3ccc(C)cc3)CC2)ccc1OCc1c(C)noc1C [MLS000056221]
4.2 µM |  | COc1ccc(CNC(=O)c2cc3c(C)nc4ccccc4c3o2)c(OC)c1 [MLS000118441]
10.2 µM |  | CCOc1ccc(C(C)=O)cc1-n1c(O)c2c(c1O)C1C=CC2O1 [MLS000087730]
 | 13.9 µM | O=C(c1ccco1)N1CCN(c2ncnc3c2[nH]c2ccc(Br)cc23)CC1 [MLS000078404]
 | 16.3 µM | Cc1cccc(N2CCN(C(=O)C3CCCN(S(=O)(=O)c4cccc5cccnc45)C3)CC2)c1C (configuration not stated) [MLS000120299]
 | 23.1 µM | CCCOc1ccc(S(=O)(=O)NCc2ccc(OC)cc2)cc1 [MLS000104592]
6.93 µM |  | CCc1ccc(NC(=O)c2cc(-c3ccco3)on2)cc1 [MLS000087211]
 | 14 µM | CC(C)OCCCNc1ncnc2c1[nH]c1ccccc12 [MLS000041327]
> 95 µM |  | Cc1noc(C)c1S(=O)(=O)N(CC(=O)Nc1ccc2c(c1)OCO2)c1ccc(C(C)C)cc1 [MLS000117405]
4.9 µM |  | Cc1nc2ccc3nc(NC(=O)C4COc5ccccc5O4)sc3c2s1 (configuration not stated) [MLS000100909]
 | 20.2 µM | CC(C)Cc1cc(C(=O)Nc2cc(Br)ccc2O)no1 [MLS000116399]

Further lines, the compound ahead of its results:

Compound | EC50 | EC50 [1]
CCN(C1CCCCC1)S(=O)(=O)c1ccc(S(=O)(=O)NCc2ccncc2)cc1 [4-N-cyclohexyl-4-N-ethyl-1-N-(pyridin-4-ylmethyl)benzene-1,4-disulfonamide] | 5.55 µM | 
COc1ccc(-c2cn3c(C)c(C(=O)N4CCCc5ccccc54)sc3n2)cc1 [3,4-dihydro-2H-quinolin-1-yl-[6-(4-methoxyphenyl)-3-methyl-2-imidazo[2,1-b]thiazolyl]methanone] |  | 50.5 µM
Cc1cc(C(=O)CN2C(=O)c3ccccc3C2=O)c(C)n1Cc1cccs1 [2-[2-[2,5-dimethyl-1-(2-thenyl)pyrrol-3-yl]-2-keto-ethyl]isoindoline-1,3-quinone] |  | 17.4 µM
OC1(c2cccc(C(F)(F)F)c2)CCN(c2ncnc3c2[nH]c2ccc(F)cc23)CC1 [1-(8-fluoranyl-5H-pyrimido[5,4-b]indol-4-yl)-4-[3-(trifluoromethyl)phenyl]piperidin-4-ol] | 3.91 µM | 
COc1ccc(-c2noc(-c3cccc(OC)c3OC)n2)cc1OC [5-(2,3-dimethoxyphenyl)-3-(3,4-dimethoxyphenyl)-1,2,4-oxadiazole] | 1.45 µM | 
CCc1ccc(S(=O)(=O)NCCc2csc(-c3ccccc3)n2)s1 [5-ethyl-N-[2-(2-phenyl-1,3-thiazol-4-yl)ethyl]thiophene-2-sulfonamide] | 8.69 µM | 
CC(=O)c1ccc(N2CCN(c3ccc(C(F)(F)F)cn3)CC2)cc1 [1-[4-[4-[5-(trifluoromethyl)-2-pyridinyl]-1-piperazinyl]phenyl]ethanone] |  | 29.4 µM
CCOC(=O)C1CCN(c2ncnc3c2oc2ccccc23)CC1 [1-(4-benzofuro[3,2-d]pyrimidinyl)-4-piperidinecarboxylic acid ethyl ester] |  | 12 µM
CN(C)c1ccnc2sc3c(=O)n(Cc4ccccc4)cnc3c12 [3-Benzyl-9-dimethylamino-3H-pyrido[3',2':4,5]thieno[3,2-d]pyrimidin-4-one] | 2.47 µM | 
Cc1cccc(NC(=O)Nc2ccc(C#N)cc2)n1 [1-(4-cyanophenyl)-3-(6-methyl-2-pyridinyl)urea] | > 30 µM | 
COc1ccc2[nH]c(=O)c3c(c2c1)OC(C)(C)C=C3 | 4.51 µM | 
c1ccc(N2CCN(c3ncnc4c3oc3ccccc34)CC2)cc1 [4-(4-phenyl-1-piperazinyl)benzofuro[3,2-d]pyrimidine] | > 95 µM | 
CCOC(=O)c1ccc2c(c1)C(=O)N(C1CCCCC1)C2=O [2-cyclohexyl-1,3-diketo-isoindoline-5-carboxylic acid ethyl ester] | > 95 µM | 
CCOc1ccc(-c2noc(-c3ccncc3)n2)cc1OCC [3-(3,4-diethoxyphenyl)-5-(4-pyridyl)-1,2,4-oxadiazole] | 0.613 µM | 
CC(=O)N1C=CN(C(C)=O)C(c2cn(C)c3ccccc23)C1c1cn(C)c2ccccc12 (configuration not stated) [1-[4-acetyl-2,3-bis(1-methyl-3-indolyl)-2,3-dihydropyrazin-1-yl]ethanone] |  | 26.2 µM
Cc1cc(C(=O)COC(=O)c2csc3c2CCCC3)c(C)n1C [4,5,6,7-tetrahydro-1-benzothiophene-3-carboxylic acid [2-oxo-2-(1,2,5-trimethyl-3-pyrrolyl)ethyl] ester] |  | 18.6 µM
CCc1ccc(-c2nc(CSCC(=O)N3CCN(c4ccccn4)CC3)c(C)o2)cc1 [1-[({[2-(4-ethylphenyl)-5-methyl-1,3-oxazol-4-yl]methyl}thio)acetyl]-4-pyridin-2-ylpiperazine] |  | 11.8 µM
Cc1ccc(C(=O)c2cncc(Br)c2)cc1 [(5-bromanylpyridin-3-yl)-(4-methylphenyl)methanone] | 9.76 µM | 
O=C(c1cc(-c2ccc(O)cc2)on1)N1CCc2ccccc2C1 [4-[3-(3,4-dihydro-1H-isoquinolin-2-ylcarbonyl)-2H-1,2-oxazol-5-ylidene]cyclohexa-2,5-dien-1-one] | 5.24 µM | 

Compound | EC50 | EC50 [1]
CCCCOC(=O)c1[nH]c2c(c1C)C(=O)CC(c1cc(OC)c(OC)c(OC)c1)C2 (configuration not stated) | 4.19 µM | 
C=CCn1c(SCC(=O)c2cccs2)nc2sc(CC)cc2c1=O [3-allyl-6-ethyl-2-[[2-keto-2-(2-thienyl)ethyl]thio]thieno[2,3-d]pyrimidin-4-one] |  | 39.9 µM
Cc1onc(-c2ccccc2Cl)c1C(=O)Oc1cc(N)n(S(=O)(=O)c2ccc(F)cc2)n1 [3-(2-chlorophenyl)-5-methyl-4-isoxazolecarboxylic acid [5-amino-1-(4-fluorophenyl)sulfonyl-3-pyrazolyl] ester] |  | 18.1 µM
Cc1cc(-c2nnc(-c3ccccc3)c(-c3ccccc3)n2)c(C)o1 [3-(2,5-dimethyl-3-furanyl)-5,6-diphenyl-1,2,4-triazine] | 2.97 µM | 
CN1/C(=C/C(=O)c2nc(S(C)(=O)=O)ncc2Cl)C(C)(C)c2ccccc21 | 8.79 µM | 
Cc1cc(C(=O)CSc2nc3ccccc3c(=O)n2C)c(C)n1Cc1ccc2c(c1)OCO2 [2-[2-[1-(1,3-benzodioxol-5-ylmethyl)-2,5-dimethyl-pyrrol-3-yl]-2-oxidanylidene-ethyl]sulfanyl-3-methyl-quinazolin-4-one] | 5.41 µM | 
CCOc1ccc(-c2nnc(-c3cccs3)o2)cc1OCC [2-(3,4-Diethoxy-phenyl)-5-thiophen-2-yl-[1,3,4]oxadiazole] | 5.93 µM | 
COc1ccc(-c2cn3c(C)c(C(=O)Nc4ccncc4)sc3n2)cc1 [6-(4-methoxyphenyl)-3-methyl-N-(4-pyridyl)imidazo[2,1-b]thiazole-2-carboxamide] | > 10 µM | 
O=C(NCc1ccc2c(c1)OCO2)C1CC(=O)N(C2CCCCCCC2)C1 (configuration not stated) [1-cyclooctyl-5-keto-N-piperonyl-pyrrolidine-3-carboxamide] | > 95 µM | 
CCOC(=O)c1sc2nc(NC(=O)C3CCCCC3)sc2c1C [2-(cyclohexanecarbonylamino)-6-methyl-thieno[2,3-d]thiazole-5-carboxylic acid ethyl ester] | > 30 µM | 
CC1CCN(S(=O)(=O)c2ccc3c(c2)oc(=O)n3CC(=O)NCc2ccc3c(c2)OCO3)CC1 [2-[2-keto-6-(4-methylpiperidino)sulfonyl-1,3-benzoxazol-3-yl]-N-piperonyl-acetamide] |  | 12.2 µM
C=CCn1c(C)cc(C(=O)CSc2nc3ccccc3o2)c1C [1-(1-allyl-2,5-dimethyl-pyrrol-3-yl)-2-(1,3-benzoxazol-2-ylthio)ethanone] | 9.52 µM | 
CCCCOc1ncnc2c1[nH]c1ccc(F)cc12 [4-butoxy-8-fluoranyl-5H-pyrimido[5,4-b]indole] | 2.73 µM | 
O=c1c(-c2ccc3c(c2)OCCO3)c(C(F)(F)F)oc2cc(O)cc(O)c12 [3-(2,3-dihydro-1,4-benzodioxin-6-yl)-5,7-bis(oxidanyl)-2-(trifluoromethyl)chromen-4-one] | 4.13 µM | 
Cn1nc(CC(=O)Nc2ccc(N3CCN(C(=O)OC(C)(C)C)CC3)cc2)c2ccccc2c1=O [4-[4-[[2-(3-methyl-4-oxo-1-phthalazinyl)-1-oxoethyl]amino]phenyl]-1-piperazinecarboxylic acid tert-butyl ester] |  | 13.3 µM
COc1ccccc1N=C(N)Nc1nc(CSc2ccc(C)cc2)cc(=O)[nH]1 [1-(2-methoxyphenyl)-2-[6-[[(4-methylphenyl)thio]methyl]-4-oxo-1H-pyrimidin-2-yl]guanidine] | 7.29 µM | 
CC(Oc1ccccc1Br)C(=O)N1CCc2ccccc21 (configuration not stated) [1-[2-(2-bromophenoxy)propanoyl]indoline] | 6.81 µM | 
CCCn1c(CN2CCN(c3cccc(Cl)c3)CC2)nc2c1c(=O)n(C)c(=O)n2C [8-[[4-(3-chlorophenyl)-1-piperazinyl]methyl]-1,3-dimethyl-7-propylpurine-2,6-dione] |  | 20.3 µM
Cc1ccc(Cl)cc1N1CCN(C(=O)COc2ccc(S(=O)(=O)NC(C)C)cc2)CC1 [4-[2-[4-(5-chloranyl-2-methyl-phenyl)piperazin-1-yl]-2-oxidanylidene-ethoxy]-N-propan-2-yl-benzenesulfonamide] |  | 12 µM
